According to patent US9149475B2, “Protein kinase C inhibitors and uses thereof” (Rigel Pharmaceuticals, Inc., priority 2009, dated 2015):

Tested on: Human primary T cells
Test: IL-2 ELISA, human primary T cell, anti-CD3+CD28+ (whole cell assay)
Type: cell-based
Conditions: Homo sapiens, T-cell, 24 h, human primary T cells stimulated with anti-CD3 + anti-CD28, 24 hours
Procedure, shortened: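 PBMC-derived T cells, pre-expanded on αCD3/αCD28 with IL-2 and then washed free of IL-2, were preincubated with compound for 1 hr at 37° C (100,000 cells/well). They were then stimulated on 1 μg/ml αCD3 plus 5 μg/ml αCD28 for 24 h, and supernatant IL-2 was measured by ELISA. The counter-assay used 0.5 ng/ml PMA plus 0.1 μM ionomycin instead.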

Molecule | IC50
Cn1nnnc1-c1cc(Cl)cc(Nc2ncc(F)c(NC3CC(C)(C)NC(C)(C)C3)n2)c1 [III-134, N2-(3-chloro-5-(1-methyl-1H-tetrazol-5-yl)phenyl)-5-fluoro-N4-(2,2,6,6-tetramethylpiperidin-4-yl)pyrimidine-2,4-diamine] | < 250 nM
CN1C(C)(C)CC(Nc2nc(Nc3cc(Cl)cc(-c4nnnn4C)c3)ncc2F)CC1(C)C [III-135, N2-(3-chloro-5-(1-methyl-1H-tetrazol-5-yl)phenyl)-5-fluoro-N4-(1,2,2,6,6-pentamethylpiperidin-4-yl)pyrimidine-2,4-diamine] | < 250 nM
Cn1nnnc1-c1cc(Nc2ncc(F)c(NC3CC(C)(C)NC(C)(C)C3)n2)cc(F)c1F [III-136, N2-(3,4-difluoro-5-(1-methyl-1H-tetrazol-5-yl)phenyl)-5-fluoro-N4-(2,2,6,6-tetramethylpiperidin-4-yl)pyrimidine-2,4-diamine] | 250 to 500 nM
CN1C(C)(C)CC(Nc2nc(Nc3cc(F)c(F)c(-c4nnnn4C)c3)ncc2F)CC1(C)C [III-137, N2-(3,4-difluoro-5-(1-methyl-1H-tetrazol-5-yl)phenyl)-5-fluoro-N4-(1,2,2,6,6-pentamethylpiperidin-4-yl)pyrimidine-2,4-diamine] | < 250 nM
Cn1nnnc1-c1cc(F)cc(Nc2ncc(F)c(NC3CC(C)(C)NC(C)(C)C3)n2)c1 [III-138, 5-fluoro-N2-(3-fluoro-5-(1-methyl-1H-tetrazol-5-yl)phenyl)-N4-(2,2,6,6-tetramethylpiperidin-4-yl)pyrimidine-2,4-diamine] | 500 to 1000 nM

The next lines start with the values.

IC50 | Molecule
< 250 nM | CN1C(C)(C)CC(Nc2nc(Nc3cc(F)cc(-c4nnnn4C)c3)ncc2F)CC1(C)C [III-139, 5-fluoro-N2-(3-fluoro-5-(1-methyl-1H-tetrazol-5-yl)phenyl)-N4-(1,2,2,6,6-pentamethylpiperidin-4-yl)pyrimidine-2,4-diamine]
< 250 nM | Cn1nnnc1-c1cc(Nc2ncc(F)c(NC3CC(C)(C)NC(C)(C)C3)n2)cc(C(F)(F)F)c1 [III-140, 5-fluoro-N2-(3-(1-methyl-1H-tetrazol-5-yl)-5-(trifluoromethyl)phenyl)-N4-(2,2,6,6-tetramethylpiperidin-4-yl)pyrimidine-2,4-diamine]
< 250 nM | CN1C(C)(C)CC(Nc2nc(Nc3cc(-c4nnnn4C)cc(C(F)(F)F)c3)ncc2F)CC1(C)C [III-141, 5-fluoro-N2-(3-(1-methyl-1H-tetrazol-5-yl)-5-(trifluoromethyl)phenyl)-N4-(1,2,2,6,6-pentamethylpiperidin-4-yl)pyrimidine-2,4-diamine]
250 to 500 nM | CC(C)Oc1c(F)cc(Nc2ncc(F)c(NC3CC(C)(C)NC(C)(C)C3)n2)cc1-c1nnnn1C [III-142, 5-fluoro-N2-(3-fluoro-4-isopropoxy-5-(1-methyl-1H-tetrazol-5-yl)phenyl)-N4-(2,2,6,6-tetramethylpiperidin-4-yl)pyrimidine-2,4-diamine]
500 to 1000 nM | Cn1nnnc1-c1cc(C#N)cc(Nc2ncc(F)c(NC3CC(C)(C)NC(C)(C)C3)n2)c1 [III-143, 3-(5-fluoro-4-(2,2,6,6-tetramethylpiperidin-4-ylamino)pyrimidin-2-ylamino)-5-(1-methyl-1H-tetrazol-5-yl)benzonitrile]
< 250 nM | CN1C(C)(C)CC(Nc2nc(Nc3cc(C#N)cc(-c4nnnn4C)c3)ncc2F)CC1(C)C [III-144, 3-(5-fluoro-4-(1,2,2,6,6-pentamethylpiperidin-4-ylamino)pyrimidin-2-ylamino)-5-(1-methyl-1H-tetrazol-5-yl)benzonitrile]
> 1000 nM | Cn1nnnc1-c1cc(Nc2ncc(F)c(NC3CC(C)(C)NC(C)(C)C3)n2)cc(OC2COC2)c1 [III-145, 5-fluoro-N2-(3-(1-methyl-1H-tetrazol-5-yl)-5-(oxetan-3-yloxy)phenyl)-N4-(2,2,6,6-tetramethylpiperidin-4-yl)pyrimidine-2,4-diamine]
250 to 500 nM | CN1C(C)(C)CC(Nc2nc(Nc3cc(OC4COC4)cc(-c4nnnn4C)c3)ncc2F)CC1(C)C [III-146, 5-fluoro-N2-(3-(1-methyl-1H-tetrazol-5-yl)-5-(oxetan-3-yloxy)phenyl)-N4-(1,2,2,6,6-pentamethylpiperidin-4-yl)pyrimidine-2,4-diamine]
< 250 nM | Cn1nnnc1-c1cc(Nc2ncc(F)c(NC3CC(C)(C)NC(C)(C)C3)n2)cc(C2CC2)c1 [III-147, N2-(3-cyclopropyl-5-(1-methyl-1H-tetrazol-5-yl)phenyl)-5-fluoro-N4-(2,2,6,6-tetramethylpiperidin-4-yl)pyrimidine-2,4-diamine]

Same assay, conditions: human primary T cells stimulated with anti-CD3 + anti-CD28, 24 hours

IC50 | Molecule
> 1000 nM | N2-(3,5-Dimethoxyphenyl)-5-fluoro-N4-(1-N-oxide-2,2,6,6-pentamethylpiperidin-4-yl)-2,4-pyrimidinediamine [Compound I-111]
